Test results published in patent publication US20200085839A1, “COMBINATION OF IMMUNOTHERAPEUTICS AND BISFLUOROALKYL-1,4-BENZODIAZEPINONE COMPOUNDS FOR TREATING LYMPHOMAS” (Ayala Pharmaceuticals Inc., priority 2018, published 2020).
Read-outs that look alike come from different tables or passages of the source.

Key:
DOHH-2 cells (DLBCL) = assay: Cell surface BCMA by FACS; assay type: cell-based, human; conditions: for EC50: Homo sapiens
Method: (§1) […] cell lines, comprising 9 subtypes of lymphomas (see Table 1), were seeded at 1×10^5 cells/well in a total volume of 250 μl into a 96-well plate. The cells were cultured in RPMI medium supplemented with 10% FCS. Compound (22) was added to the cell cultures at a concentration of 10 μM, 1 μM, 100 nM, 10 nM, 1 nM, 100 pM, 10 pM, 1 pM, and 100 fM, and cell lines (8 from Hadassah Medical Center, 31 from Eurofins) were incubated at 37° C. for 24 hours with Compound (22). Following incubation, the cells were collected and BCMA levels were evaluated on the cell surface for cell-bound BCMA. Cells were stained with an anti-BCMA antibody (PE anti-human 19F2 BCMA, Biolegend), and cell surface BCMA levels were determined by FACS analysis (Mean Fluorescence Intensity. Soluble BCMA levels were analyzed by ELISA (Human BCMA/TNFRSF17 DuoSet kit: R&D Systems).

[1] = tested on: GA-10 cells (Burkitt's Lymphoma); assay: Cell surface BCMA by FACS; assay type: cell-based, human; conditions: for EC50: Homo sapiens
Method: as §1

[2] = tested on: MHHH-PREB-1 cells (B-cell Lymphoma); assay: Cell surface BCMA by FACS; assay type: cell-based, human; conditions: for EC50: Homo sapiens, B-cell
Method: as §1

SUDHL-10 cells (DLBCL) = assay: Cell surface BCMA by FACS; assay type: cell-based, human; conditions: for EC50: Homo sapiens
Method: as §1

[3] = tested on: Ramos cells (Burkitt's Lymphoma); assay: Cell surface BCMA by FACS; assay type: cell-based, human; conditions: for EC50: Homo sapiens
Method: as §1

[4] = tested on: Daudi cells (Burkitt's Lymphoma); assay: Cell surface BCMA by FACS; assay type: cell-based, human; conditions: for EC50: Homo sapiens
Method: as §1

[5] = tested on: CRO-AP2 cells (B-cell Lymphoma); assay: Cell surface BCMA by FACS; assay type: cell-based, human; conditions: for EC50: Homo sapiens
Method: as §1

DB cells (DLBCL) = assay: Cell surface BCMA by FACS; assay type: cell-based, human; conditions: for EC50: Homo sapiens
Method: as §1

[6] = tested on: SUDHL-4 (Eurofins) cells (DLBCL); printed SUDHL in Table 1; assay: Cell surface BCMA by FACS; assay type: cell-based, human; conditions: for EC50: Homo sapiens, SU-DHL-4
Method: as §1

[7] = tested on: RPMI-8226 human multiple myeloma cell line; assay: Combination index (Chou and Talalay) of Compound (1) with BCMA-CAR-T; assay type: cell-based; conditions: Compound (1) 10-80 nM with BCMA-CAR-T 10^9 cells
Method: (§2) Drug interaction analysis and the confirmation of synergism is determined by the method of Chou and Talalay. Linear regression analysis of dose-response data is performed using Calcusyn 1.2 software (Biosoft, Cambridge, United Kingdom) to calculate a combination index (CI) for each individual drug combination. To ensure valid statistical analysis, only experimental data for which the linear correlation coefficient of the median-effect plot was more than 0.9 are included. CI values are defined as: […]
(§3) The combination of Compound (1) with BCMA-CAR-T in models of human multiple myeloma in vitro lead to synergistic cell killing. Specifically, Compound (1) when used at concentrations between 10-80 nM (concentrations that are relevant in patients) in combination with BCMA-CAR-T at concentrations of 10^9 cells produce synergistic cell killing in the U266 and RPMI-8226 human multiple myeloma cell lines.

[8] = tested on: U266 human multiple myeloma cell line; assay: as above; assay type: cell-based; conditions: Compound (1) 10-80 nM with BCMA-CAR-T 10^9 cells
Method: as §2, §3

GFP^+ LPL line = assay: Lysis of GFP expressing tumor cell lines by BCMA-CAR-T cells and/or Compound (1); assay type: cell-based, human; conditions: BCMA-CAR-T cells and Compound (1) combined; 36 h
Source text: Multiple unique fully human scFvs to BCMA are generated, and CARs based on these scFvs are generated. Multiple scFvs are identified by screening a fully human scFv phage library (>6×10^10 scFvs) with BCMA-Fc fusion protein and then 3T3 cells expressing human BCMA. FACS analysis of phage antibody clones against BCMA-3T3 and parental 3T3 cell lines is used to confirm unique positive clones.
The generated scFvs are used to generate BCMA-targeted CARs. These BCMA-targeted CARs have similar structure, e.g., each has a transmembrane domain comprising a CD28 polypeptide, and an intracellular domain comprising a […] and a co-stimulatory signaling region that comprises a CD28 polypeptide. Each of these BCMA-targeted CARs are cloned into a retroviral vector. These viral vectors are then transduced into HEK 293galv9 viral packaging cells in order to generate a stable packaging line for generation of CAR+ T cells. […] The cell surface expression of BCMA-targeted CARs on human T cells is determined via binding A647 conjugated BCMA-Fc fusion protein. The cell surface expression of BCMA-targeted 28z CAR24 is assessed, and cell surface detection is validated by flow cytometry.
The ability of BCMA-CAR-T cells and Compound (1) to specifically lyse human myeloma cell line (HMCL) is tested. […] At time 0, the percent of GFP tumor line is determined.

[9] = 24 h, read-out: BCMA (Mean Fluorescence Intensity) EC50

In the case of Cc1cccc2c1NC(=O)[C@@H](NC(=O)[C@H](CCC(F)(F)F)[C@H](CCC(F)(F)F)C(N)=O)N=C2c1cccc(F)c1 [Compound (22), (2R,3S)—N-((3S)-5-(3-fluorophenyl)-9-methyl-2-oxo-2,3-dihydro-1H-1,4-benzodiazepin-3-yl)-2,3-bis(3,3,3-trifluoropropyl)succinamide], the “mBCMA (MFI) Fold Increase” value (DOHH-2 cells (DLBCL)) is reported as 4.4 fold, the “BCMA (Mean Fluorescence Intensity) 1 nM Compound (22)” value (DOHH-2 cells (DLBCL); 1 nM, 24 h) is reported as 8033 and the “BCMA (Mean Fluorescence Intensity) 100 nM Compound (22)” value (DOHH-2 cells (DLBCL); 100 nM, 24 h) is reported as 12620. The EC50 (DOHH-2 cells (DLBCL); [9]) was 0.87 nM, the EC50 (DOHH-2 cells (DLBCL); read-out: mBCMA (MFI) EC50) was 0.87 nM and the “mBCMA (MFI) Fold Increase” value [1] was 5.6 fold. The “BCMA (Mean Fluorescence Intensity) 1 nM Compound (22)” value ([1]; 1 nM, 24 h) was 41993, the “BCMA (Mean Fluorescence Intensity) 100 nM Compound (22)” value ([1]; 100 nM, 24 h) was 51080 and the EC50 [1, 9] was 0.56 nM. The EC50 ([1]; read-out: mBCMA (MFI) EC50) was 0.56 nM, the “mBCMA (MFI) Fold Increase” value [2] was 4.5 fold and the “BCMA (Mean Fluorescence Intensity) 1 nM Compound (22)” value ([2]; 1 nM, 24 h) was 1363. The “BCMA (Mean Fluorescence Intensity) 100 nM Compound (22)” value ([2]; 100 nM, 24 h) was 1830, the EC50 [2, 9] was 1.7 nM and the EC50 ([2]; read-out: mBCMA (MFI) EC50) was 1.7 nM. For the same compound, the “mBCMA (MFI) Fold Increase” value (SUDHL-10 cells (DLBCL)) was 6.7 fold, the “BCMA (Mean Fluorescence Intensity) 1 nM Compound (22)” value (SUDHL-10 cells (DLBCL); 1 nM, 24 h) was 6061 and the “BCMA (Mean Fluorescence Intensity) 100 nM Compound (22)” value (SUDHL-10 cells (DLBCL); 100 nM, 24 h) was 7822. The EC50 (SUDHL-10 cells (DLBCL); SU-DHL10, 24 h, read-out: BCMA (Mean Fluorescence Intensity) EC50) was 5.9 nM, the EC50 (SUDHL-10 cells (DLBCL); SU-DHL10, read-out: mBCMA (MFI) EC50) was 5.9 nM and the “mBCMA (MFI) Fold Increase” value [3] was 10.8 fold. The “BCMA (Mean Fluorescence Intensity) 1 nM Compound (22)” value ([3]; 1 nM, 24 h) was 4899, the “BCMA (Mean Fluorescence Intensity) 100 nM Compound (22)” value ([3]; 100 nM, 24 h) was 10264 and the EC50 [3, 9] was 1.4 nM. For the same compound, the EC50 ([3]; read-out: mBCMA (MFI) EC50) was 1.4 nM, the “mBCMA (MFI) Fold Increase” value [4] was 4.2 fold and the “BCMA (Mean Fluorescence Intensity) 1 nM Compound (22)” value ([4]; 1 nM, 24 h) was 1421. The “BCMA (Mean Fluorescence Intensity) 100 nM Compound (22)” value ([4]; 100 nM, 24 h) was 2242, the “cell-bound BCMA” value ([4]; FIG. 7A) was “increased cell-bound BCMA” and the EC50 [4, 9] was 4.9 nM. For the same compound, the EC50 ([4]; read-out: mBCMA (MFI) EC50) was 4.9 nM, the “mBCMA (MFI) Fold Increase” value [5] was 6.6 fold and the “BCMA (Mean Fluorescence Intensity) 1 nM Compound (22)” value ([5]; 1 nM, 24 h) was 855. The “BCMA (Mean Fluorescence Intensity) 100 nM Compound (22)” value ([5]; 100 nM, 24 h) was 4782, the EC50 [5, 9] was 5.6 nM and the EC50 ([5]; read-out: mBCMA (MFI) EC50) was 5.6 nM. For the same compound, the “mBCMA (MFI) Fold Increase” value (DB cells (DLBCL)) was 4.1 fold, the “BCMA (Mean Fluorescence Intensity) 1 nM Compound (22)” value (DB cells (DLBCL); 1 nM, 24 h) was 870 and the “BCMA (Mean Fluorescence Intensity) 100 nM Compound (22)” value (DB cells (DLBCL); 100 nM, 24 h) was 1827. For the same compound, the “cell-bound BCMA” value (DB cells (DLBCL); FIG. 9A) was “increased cell-bound BCMA”, the EC50 (DB cells (DLBCL); [9]) was 4.9 nM and the EC50 (DB cells (DLBCL); read-out: mBCMA (MFI) EC50) was 4.9 nM. For the same compound, the EC50 ([6]; SUDHL-4 (Eurofins), read-out: mBCMA (MFI) EC50) was 1.6 nM, the EC50 ([6]; SUDHL, 24 h, read-out: BCMA (Mean Fluorescence Intensity) EC50) was 1.6 nM and the “mBCMA (MFI) Fold Increase” value ([6]; SUDHL-4 (Eurofins)) was 9.1 fold. For the same compound, the “BCMA (Mean Fluorescence Intensity) 1 nM Compound (22)” value ([6]; SUDHL, 1 nM, 24 h) was 7568 and the “BCMA (Mean Fluorescence Intensity) 100 nM Compound (22)” value ([6]; SUDHL, 100 nM, 24 h) was 20540.

CN1C(=O)[C@@H](NC(=O)[C@H](CCC(F)(F)F)[C@H](CCC(F)(F)F)C(N)=O)N=C(c2ccccc2)c2ccccc21 [Compound 1, (2R,3S)—N-((3S)-1-methyl-2-oxo-5-phenyl-2,3-dihydro-1H-1,4-benzodiazepin-3-yl)-2,3-bis(3,3,3-trifluoropropyl)succinamide] was tested, and the “cell killing, combination index (CI) class” value [7] was “synergistic (0.3 < CI ≤ 0.9)”, the “cell killing, combination index (CI) class” value [8] was “synergistic (0.3 < CI ≤ 0.9)” and the “specific killing of GFP tumor cells” value (GFP^+ LPL line) was “specifically killed more cells of the GFP^+ LPL line than either treatment alone”.
